Measured values reported in patent US12503452B2 (Curza Global, LLC, priority 2019, dated 2025).
Counter-ions that a name gives are not always drawn. Like-named read-outs stand apart in the source and are kept apart here.

Assays:
E. coli (Ec) = assay: Broth microdilution minimum inhibitory concentration (MIC); type: cell-based; settings: Escherichia coli, E. coli, read-out: E. coli + bicarb MIC
Description: A certified BSL-2 laboratory was used for testing. Compounds were evaluated using the broth microdilution minimum inhibitory concentration (MIC) and minimum bactericidal concentration (MBC) assays defined by Clinical and Laboratory Standards Institute (CLSI) in the M26-A guideline against S. aureus (Sa), E. coli (Ec), K. pneumoniae (Kp), A. baumannii (Ab), E. faecalis (Ef) and P. aeruginosa (Pa).
MICs were determined using the Clinical Laboratory and Standards Institute (CLSI) Broth Microdilution Method with slight modification. Clinical and Laboratory Standards Institute (2012). “Methods for dilution antimicrobial susceptibility tests for bacteria that grow aerobically; approved standard, 9th ed. M07-A9. Clinical and Laboratory Standards Institute, Wayne, PA” Serial two-fold dilutions of compounds are prepared in sterile clear round-bottom 96-well plates.
To prepare microdilution trays, two-fold dilutions of antimicrobial agent are prepared in growth medium: Cation-Adjusted Mueller-Hinton Broth (CAMHB), or CAMHB supplemented with sodium bicarbonate (6.25 or 25 mM final concentration prepared from a 1.0M stock solution) or CAMHB supplemented with heat inactivated human serum (Fisher Cat. #BP2657100) 0-50% by adding 200 μL of the highest concentration to be tested (64 μg/mL, for example) in row A, mixing and transferring 100 μL from row A to 100 μL growth medium in row B, then repeating the mixing and transferring through row H of the 96-well plate, discarding the excess 100 μL remaining. This slight modification to the CLSI protocol enables evaluation of MICs for 3 compounds per plate in triplicate, albeit with only 8 compound dilutions (CLSI protocol enables 2 compounds in triplicate with 10 dilutions). Bacterial suspensions are added to a final concentration of 5×10^4 CFU/well by adding 5 μL of a 1:10 dilution of a 0.5 McFarland suspension (1×10^8 CFU/mL) for each bacterium evaluated. Bacterial suspensions were prepared using the growth method described by CLSI. Well-isolated colonies (3-5 from an agar plate) were selected using a sterile loop and used to inoculate a tube containing 4 mL of CAMHB. The cultures are incubated at 35±2° C. until it achieves or exceeds the turbidity of the 0.5 McFarland standard, determined by measuring A600nm (usually two to six hours). When growth exceeds a 0.5 McFarland standard, the turbidity is adjusted with broth to be equivalent to a 0.5 McFarland standard.

[1] = test system: E. coli S30 extract (bacterial protein synthesis); assay: E. coli S30 extract coupled transcription-translation luciferase assay (inhibition of bacterial protein synthesis); type: biochemical; settings: read-out: S30 IC50 (μM/% inhib.)
Description: E. coli S30 extract: Inhibition of bacterial protein synthesis was determined using the E. coli S30 Extract System for Circular DNA (Promega catalog #L-2010) and Luciferase Assay Reagent (Promega catalog #E1500) with slight modifications to a published protocol. Fyfe, C., Sutcliffe, J. A. and Grossman, T. H. (2012) “Development and characterization of a Pseudomonas aeruginosa in vitro coupled transcription-translation assay system for evaluation of translation inhibitors” J. Microbiol. Methods 90(3), 256-261.
Compounds were serial diluted in 0.5 mL microcentrifuge tubes by mixing and transferring 50 μL from the highest concentration to 50 μL of water, mixing and transferring 50 μL of this 2-fold dilution to 50 μL of water. This mixing and transferring was repeated so that there are a total of 8 tubes with serial dilutions of compound at 10× the desired screening concentration that are ultimately diluted to 1× by the addition of S30 luciferase synthesis mixture. Serial dilutions of compounds were added (2 μL) to wells in a black round bottom 96-well plate. Water (2 μL) was used as a “no inhibitor” control in 4 wells/plate. No DNA control reaction mixture (20 μL; see below) was used as a control in 4 wells/plate for background luminescence. S30 luciferase synthesis mixture (18 μL; see below) was added to wells with compounds or water mixture and incubated at 37° C. for 1 hour. Reactions were stopped by transferring to 4° C. refrigerator for 5 minutes then 25 μL of luciferase activity mix was added. Luminescence was measured using a BioTek Synergy HTX plate reader. % Inhibition was determined relative to no inhibitor controls.
S30 luciferase synthesis mixture:
• 445 μL S30 extract, circular • 712 μL S30 Premix without amino acids • 4.45 μL pBESTluc™ DNA (1 μg/μL) • 78 μL complete amino acid mixture • 267 μL water No DNA control: • 20 μL S30 extract, circular • 32 μL S30 Premix without amino acids • 7 μL complete amino acid mixture • 21 μL water Rabbit Reticulocyte lysate

[2] = target: Rabbit Reticulocyte Lysate (eukaryotic protein synthesis); assay: Rabbit reticulocyte lysate luciferase assay (inhibition of eukaryotic protein synthesis); type: biochemical; settings: read-out: Rabbit reticulocyte IC50 (μM/% inhib.)
Description: Inhibition of eukaryotic protein synthesis was determined using the Rabbit Reticulocyte Lysate System, Nuclease-Treated from Promega (catalog #L-4960) with slight modifications to the manufacturer's protocol. Compounds were serial diluted in 0.5 mL microcentrifuge tubes by mixing and transferring 50 μL from the highest concentration to 50 μL of water, mixing and transferring 50 μL of this 2-fold dilution to 50 μL of water. This mixing and transferring was repeated so that there are a total of 8 tubes with serial dilutions of compound at 10× the desired screening concentration that are ultimately diluted to 1× by the addition of rabbit reticulocyte luciferase synthesis mixture. Serial dilutions of compounds were added ([…]) to wells in a black round bottom 96-well plate. Water (2.5 μL) was used as a “no inhibitor” control in 4 wells/plate. No RNA control reaction mixture ([…]; see below) was used as a control in 4 wells/plate for background luminescence. Rabbit reticulocyte luciferase synthesis mixture (22.5 μL; see below) was added to wells with compounds or water mixture and incubated at 30° C. for 90 minutes. Luciferase assay reagent (25 μL) was added with luminescence measured using a BioTek Synergy HTX plate reader. % Inhibition was determined relative to no inhibitor controls.
Rabbit reticulocyte luciferase synthesis mixture:
• 1,000 μL rabbit reticulocyte lysate • 5.7 μL Luciferase Control RNA (1 μg/μL) • 26 μL complete amino acid mixture • 395 μL water No RNA Control • 70 μL rabbit reticulocyte lysate • 2 μL complete amino acid mixture • 28 μL water Minimum Inhibitory Concentration (MIC)

[3] = growth medium supplemented with sodium bicarbonate
[4] = class by IC50 or % inhibition @ 1 μM
[5] = growth medium with sodium bicarbonate

| Structure (SMILES) | MIC (E. coli (Ec); [3]) | IC50 [1, 4] | IC50 [2, 4] | MIC (E. coli (Ec); [5]) | IC50 ([1]; % inhibition @ 1 μM) | IC50 ([2]; % inhibition @ 1 μM) |
| --- | --- | --- | --- | --- | --- | --- |
| CCOC(=O)C(c1ccc(-n2ccc(NC(=O)N3CCN(C(=O)C(C)(C)N)CC3)nc2=O)cc1)N1CCC(N)CC1 (stereo not drawn) [Compound 92] | > 32 µg/mL | > 1 µM |  |  |  |  |
| CC(C)(N)C(=O)N1CCN(C(=O)Nc2ccn(-c3ccc(C(C(=O)O)N4CCC(N)CC4)cc3)c(=O)n2)CC1 (stereo not drawn) [Compound 93] | > 32 µg/mL | > 1 µM |  |  |  |  |
| C[C@](N)(CO)C(=O)N1CCN(C(=O)Nc2ccn(-c3ccc(CN4CCC(N)CC4)cc3)c(=O)n2)CC1 [Compound 97] | 8 to 32 µg/mL | < 0.5 µM | > 1 µM |  |  |  |
| C[C@H](N)C1CCN(Cc2ccc(-n3ccc(NC(=O)N4CCN(C(=O)C(C)(C)N)[C@H](C)C4)nc3=O)cc2)CC1 [Compound 206] |  | > 1 µM | > 1 µM |  |  |  |
| C[C@H](N)C1CCN(Cc2ccc(-n3ccc(NC(=O)N4CCN(C(=O)[C@@](C)(N)CO)C[C@H]4C)nc3=O)cc2)CC1 [Compound 207] |  | > 1 µM | > 1 µM |  |  |  |
| CC(C)(N)C(=O)N1CCN(C(=O)Nc2ccn(-c3ccc(CN4CC[C@@H](N)[C@H](F)C4)cc3)c(=O)n2)CC1 [Compound 208] |  | > 1 µM |  | 8 to 32 µg/mL |  |  |
| CN(C)C1CCN(Cc2ccc(-n3ccc(NC(=O)N4CCN(C(=O)C(C)(C)N)CC4)nc3=O)cc2)CC1 [Compound 214] |  | < 0.5 µM |  | < 8 µg/mL |  |  |
| CC(C)(N)C(=O)N1CCN(C(=O)Nc2ccn(-c3ccc(CN4CCC(O)(CN)CC4)cc3)c(=O)n2)CC1 [Compound 215] |  | < 0.5 µM |  | < 8 µg/mL |  |  |
| CO[C@@H]1CN(Cc2ccc(-n3ccc(NC(=O)N4CCN(C(=O)C(C)(C)N)CC4)nc3=O)cc2)CC[C@H]1N [Compound 216] |  | > 1 µM |  | 8 to 32 µg/mL |  |  |
| CC(C)(N)C(=O)N1CCN(C(=O)Nc2ccn(-c3ccc(CN4CCC(CCN)CC4)cc3)c(=O)n2)CC1 [Compound 218] |  | < 0.5 µM | > 1 µM | < 8 µg/mL |  |  |
| C[C@H](N)C1CCN(Cc2ccc(-n3ccc(NC(=O)N4CCN(C(=O)[C@@](C)(N)CO)CC4)nc3=O)cc2)CC1 [Compound 221] |  | < 0.5 µM | > 1 µM | < 8 µg/mL |  |  |
| C[C@@H](N)C1CCN(Cc2ccc(-n3ccc(NC(=O)N4CCN(C(=O)[C@@](C)(N)CO)CC4)nc3=O)cc2)CC1 [Compound 222] |  | < 0.5 µM | > 1 µM | < 8 µg/mL |  |  |
| CC(C)(N)C(=O)N1CCN(Cc2ccc(-n3ccc(NC(=O)N4CCN(C(=O)C(C)(C)N)CC4)nc3=O)cc2)CC1 [Compound 225] |  | > 1 µM | > 1 µM |  |  |  |
| CC(C)(N)CN1CCN(Cc2ccc(-n3ccc(NC(=O)N4CCN(C(=O)C(C)(C)N)CC4)nc3=O)cc2)CC1 [Compound 226] |  | < 0.5 µM | > 1 µM | < 8 µg/mL |  |  |
| CC(C)(N)N1CCN(C(=O)Nc2ccn(-c3ccc(CN4CCC(N)CC4)cc3)c(=O)n2)CC1 [Compound 230] |  | > 1 µM | > 1 µM | 8 to 32 µg/mL |  |  |
| Cc1cn(-c2ccc(CN3CCC(N)CC3)cc2)c(=O)nc1NC(=O)N1CCN(C(=O)C(C)(C)N)CC1 [Compound 234] |  | > 1 µM | > 1 µM | > 32 µg/mL |  |  |
| CC(C)(N)C(=O)N1CCN(C(=O)Nc2ccn(-c3ccc(CN4CCC[C@@H](N)C4)cc3)c(=O)n2)CC1 [Compound 236] |  | > 1 µM | > 1 µM | < 8 µg/mL |  |  |
| CC(C)(N)C(=O)N1CCN(C(=O)Nc2ccn(-c3ccc(CN4CCC[C@H](N)C4)cc3)c(=O)n2)CC1 [Compound 237] |  | 0.5 to 1 µM | > 1 µM | < 8 µg/mL |  |  |
| CC1(N)CN(Cc2ccc(-n3ccc(NC(=O)N4CCN(C(=O)C(C)(C)N)CC4)nc3=O)cc2)C1 [Compound 238] |  | > 1 µM | > 1 µM | < 8 µg/mL |  |  |
| CC(C)(N)C(=O)N1CCN(C(=O)Nc2ccn(-c3ccc(CN4CC[C@@H](N)C4)cc3)c(=O)n2)CC1 [Compound 239] |  | < 0.5 µM | > 1 µM | < 8 µg/mL |  |  |
| CC1(N)CCN(Cc2ccc(-n3ccc(NC(=O)N4CCN(C(=O)[C@@](C)(N)CO)CC4)nc3=O)cc2Cl)CC1 [Compound 360] |  |  |  |  | < 0.5 µM | > 1 µM |
| CC(C)(N)CC(=O)N1CCN(C(=O)Nc2ccn(-c3cccc(CN4CCC(N)CC4)c3)c(=O)n2)CC1 [Compound 362] |  |  |  |  | > 1 µM | > 1 µM |
| CC(C)(N)CC(=O)N1CCN(C(=O)Nc2ccn(-c3cccc(CN4CCC(C)(N)CC4)c3)c(=O)n2)CC1 [Compound 363, hydrochloride salt] |  |  |  |  | > 1 µM | > 1 µM |
| CC(C)[C@H](N)C(=O)NC(C)(C)C(=O)N1CCN(C(=O)Nc2ccn(-c3ccc(CN4CCC(N)CC4)cc3)c(=O)n2)CC1 [Compound 364, hydrochloride salt] |  |  |  |  | < 0.5 µM | > 1 µM |
| CC(C)(N)C(=O)N1CCN(C(=O)Nc2ccn(-c3ccc(CN4CC(CCN)(C(=O)O)C4)cc3)c(=O)n2)CC1 [Compound 369, hydrochloride salt] |  |  |  |  | > 1 µM | > 1 µM |
| CC(C)(N)C(=O)N1CCN(C(=O)Nc2ccn(-c3ccc(CN4CCC(F)(F)CC4)cc3)c(=O)n2)CC1 [Compound 383] |  |  |  |  | > 1 µM | > 1 µM |
